Assay results reported in US12215162B2, “BAFF-R targeted chimeric antigen receptor-modified T-cells and uses thereof” (CITY OF HOPE, priority 2016, dated 2025).

Legend:
SP49 = settings: 100 nM ibrutinib; cited from earlier work
SP49-IR = settings: 100 nM ibrutinib; cited from earlier work
[1] = test system: RS4 acute lymphoblastic lymphoma; test: Chromium release ADCC on RS4; format: cell-based, human; settings: NK cells E:T 20:1, 6 hours
Description: FIGS. 21A and 21B are graphs showing humanized antibodies C90-4 and C90-5 analyzed for their specific cytotoxicity of various lymphoma lines. For FIG. 21A, JeKo-1, Z138, and RS4 were subjected to a chromium release assay with humanized antibodies C90-4 and C90-5. Antibodies were administered to the cell lines at concentrations between 0 to 5 μg/mL and incubated for 6 hours with NK cells at an E:T ratio of 20:1. The cell supernatants were analyzed for their chromium content. For FIG. 21B, LY-10, MEC-2, RL, and Raji lymphoma lines were subjected to a chromium release assay with humanized antibodies C90-4 and C90-5. Antibodies were administered to the cell lines at 5 μg/mL and incubated for 6 hours with NK cells at an E:T ratio of 20:1. The cell supernatants were analyzed for their chromium content.
The two variants were further assessed in their ability to initiate ADCC. The antibodies were administered in varying concentration to JeKo-1, Z138, and RS4 lines after a period of chromium uptake. The cells and antibodies were incubated with effector NK cells. The supernatant was analyzed 6 hours post treatment (FIG. 21A).

[2] = test system: RS4; 11 (acute lymphoblastic leukemia, ALL); test: In vivo RS4;11 ALL tumor model, antibody treatment; set-up: species or system NSG mice; settings: 200 μg antibody + NK-92-176V cells + IL-2 IV
Description: FIG. 4A is a schematic showing treatment schedule following Day 0 tumor challenge with minimum lethal dose of tumors. Treatments were given by IV tail vein injections. FIGS. 4B and 4C are images showing chimeric antibodies targeting human BAFF-R elicited in vivo therapeutic effects against B-cell tumors. Bioluminescence images of mice challenged with luciferase-expressing tumors: JeKo-1 (MCL) (FIG. 4B) or RS4; 11 (ALL) (FIG. 4C). Experimental groups received treatment of chimeric BAFF-R mAbs (C55 or C90, as indicated). Control group mice received PBS, NK cells alone, or rituximab on the same schedule. Data are representative of three independent experiments.
(§1) In vivo studies. For tumor models, stable, luciferase-expressing tumors lines were established for bioluminescent imaging in mouse models. Briefly, a luciferase gene was introduced into tumor lines by a lentivirus gene delivery system (pLenti7.3/V5-DEST Gateway Vector Kit, Life Technologies, Carlsbad, CA). The minimum lethal dose per mouse was determined for each tumor cell line by dose titration. Tumor cells were injected intravenously (IV) and mice were monitored by in vivo bioluminescence imaging for minimum tumor dose to ensure engraftment. Minimum lethal tumor doses were 1×10^6 JeKo-1, 5×10^5 RS4; 11, 5×10^5 JeKo-1-CD20-KO, or 2.5×10^4 Z-138 cells. […]

JeKo-1-CD20-KO = test: In vivo JeKo-1-CD20-KO tumor model, antibody treatment; set-up: species or system NSG mice; settings: Day 20
Description: FIGS. 6A and 6B are images and FIG. 6C are graphs showing chimeric antibodies targeting human BAFF-R elicited in vivo therapeutic effects against drug resistant B-cell tumors. Bioluminescence images of mice challenged with luciferase-expressing tumors JeKo-1-CD20-KO cells (FIG. 6A) or ibrutinib-resistant Z-138 cells (FIG. 6B) followed by antibody treatments as in FIG. 4. Control group mice received PBS, NK cells alone, or rituximab on the same schedule. […] Tumor free rate and survival differences between experimental and all control groups were analyzed by log-rank test (** P<0.001). Data are representative of three independent experiments.
as §1

JeKo-1-CD20-KO clone 25 = test: ADCC against rituximab-resistant JeKo-1-CD20-KO; format: cell-based, human; settings: NK cells E:T 20:1
Description: FIGS. 5A, 5B and 5C are images or graphs showing chimeric BAFF-R antibodies induce ADCC on drug resistant lymphoma models in vitro. FIG. 5A is a scatterplot of FACS analysis showing CD20 binding on JeKo-1 cells following CRISPR/HDR knock-out of CD20 gene. CD20 expression on selected CD20−/−clone #25 compared to WT JeKo-1. ADCC effects measured by chromium-51 release after incubation with C55, C90, or rituximab and effectors NK cells (E:T=20:1). Percentage of cell specific lysis of target cells: rituximab-resistant JeKo-1-CD20-KO (FIG. 5B) and ibrutinib-resistant Z-138 and SP49-IR (FIG. 5C). All data are representative of two or more identical experiments. Data are shown as the mean±s.d. of triplicate samples. *P<0.05 compared with NK cells by two-tailed Student's t-test.
Cytotoxicity assays. Target cells (L cells, human tumor lines, primary patient samples) were labeled with chromium-51 (51Cr, Perkin Elmer, Waltham, MA) for a 51Cr release assay. Briefly, antibodies and effectors (NK cells or complement serum standard [Sigma Aldrich, St. Louis, MO]), were added to labeled target cells and incubated up to 18 hours. NK cells were enriched from PBMC (NK cell enrichment kit, Stemcell Technologies, Vancouver, Canada). 51Cr released into supernatant was detected with a Wizard Automatic Gamma Counter (Perkin Elmer).
Generation of JeKo-1-CD20-KO. […]

For `C=CC(=O)N1CCC[C@@H](n2nc(-c3ccc(Oc4ccccc4)cc3)c3c(N)ncnc32)C1` [ibrutinib], the viable cells (SP49) is given as roughly 5% and the viable cells (SP49-IR) is given as greater than 90%.

In the case of rituximab [reference compound], the “activity (ADCC)” value [1] is reported as “not active”, the “tumor growth (bioluminescence)” value [2] is reported as “no inhibition” and the “tumor burden by bioluminescent imaging” value (JeKo-1-CD20-KO) is reported as “substantial tumor burden”. For the same molecule, the “sensitivity to antibody-mediated cytotoxicity” value (JeKo-1-CD20-KO clone 25) was “insensitive”.
